According to patent US11331328B2, “Compositions and methods for inhibiting antiapoptotic Bcl-2 proteins as anti-aging agents” (priority 2014, dated 2022):
Read-outs that look alike come from different tables or passages of the source. Peptide text beside a SMILES is read from it. * marks the point of attachment. Cbz = O=C(OCc1ccccc1)*

Key:
[1] = tested on: IR-induced senescent WI-38 cells (SC); assay: Cell viability (PI flow cytometry), LD50 in IR-induced senescent WI-38 cells; type: cell-based, human; conditions: for LD50 Ratio (NC/SC): non-senescent vs IR-induced senescent WI-38 cells
Method: (§1) Mouse embryonic fibroblasts (MEF) were isolated from mouse embryos as described^1. All cells were cultured in a complete medium (CM) (Dulbecco's Modified Eagle Medium supplemented with 10% fetal bovine serum [FBS], 100 U/ml penicillin, and 100 μg/ml streptomycin [all from Atlanta Biologicals, Norcross, Ga., and USA]) in a humidified incubator at 37° C. and 5% CO2. Low passages of WI-38 cells (<25), IMR-90 (<25), REC cells (<25) and MEF (<3) were used as non-senescent controls or for induction of senescence to avoid replicative senescence. […] To induce senescence by expression of oncogenic Ras (Ras^V12), WI-38 cells were infected with the retroviruses pBabe-H-Ras or pBabe-puro (control) (Addgene, Cambridge, Mass., UAS)^2, 3. […] Senescent cells were maintained in culture for a few days, changing the culture medium every 3 days until use. For in vitro cell culture experiments, we usually repeated the experiments for at least three times to ensure the reproducibility of the data. In addition, the repeats of the experiments for three times will allow us to obtain 3 independent observations for statistical analysis.
(§2) Flow cytometry: Non-senescent and senescent cells were seeded into wells of 24- or 48-well at about 70% of confluence. […] Both quiescent non-senescent cells and permanently growth arrested senescent cells were treated with vehicle (0.1% DMSO or PBS) or increasing concentrations of the compounds listed in Table 1 for various durations. […] After incubated with propidium iodide (PI 100 ng/ml) in PBS at room temperature for 1 min, cells were centrifuged at 1200 rpm for 6 min and then resuspended in PBS with 2% of FBS for analysis by a BD LSR II flow cytometer (BD Biosciences, San Jose, Calif., USA). Viable cells (PI^− cells) were numerated by flow cytometry at a constant flow rate and calculated as a percentage of control cells treated with vehicle using the formula: percentage of control=(Ndrug/NC)×100, where Ndrug and NC represent the absolute number of PI^− viable cells of drug-treated and vehicle-treated cells, respectively.
(§3) MTT (3-[4,5-dimethylthiazol-2-yl]-2,5 diphenyl tetrazolium bromide) assay: Cells were harvested, washed and resuspended in CM and added to wells of 24- or 48-well plates as described above. […] After 4 h at 37° C., the formazan was solubilized by lysing the cells with 300 μl of DMSO. Absorbance of formazan was measured at 595 nm using a Microplate Reader (BioTek, Winooski, Vt., USA). Cell viability was calculated in the method as previously described^4.
(§4) Trypan blue exclusion assay: Cells were harvested, washed and resuspended in CM and added to wells of a 6-well plate as described above. […] Living cells stained negative for trypan blue and were counted under light microscopy.
(§5) Briefly, Probit (set as y) was determined by looking up their correspondence to the % responded in Finney's table. The log of the compound concentrations was used as x. By fitting a line of regression, we produce the formula y=ax+b.

[2] = tested on: non-senescent WI-38 cells (NC); assay: Cell viability (PI flow cytometry), LD50 in non-senescent WI-38 cells; type: cell-based, human
Method: as §1, §2, §3, §4, §5

[3] = Homo sapiens, WI-38 fibroblasts, IR-induced senescent, LD50 by Probit Analysis, read-out: LD50 (μM) for senescent cells (SC)
[4] = Homo sapiens, WI-38 fibroblasts, non-senescent, LD50 by Probit Analysis, read-out: LD50 (μM) for non-senescent cells (NC)
[5] = WI-38 fibroblasts, IR-induced senescent, LD50 by Probit Analysis, read-out: LD50 (μM) for senescent cells (SC)
[6] = WI-38 fibroblasts, non-senescent, LD50 by Probit Analysis, read-out: LD50 (μM) for non-senescent cells (NC)
[7] = Homo sapiens, WI-38, read-out: LD50 (μM) for senescent cells (SC)
[8] = Homo sapiens, WI-38, read-out: LD50 (μM) for non-senescent cells (NC)

| Compound | IC50 [1, 3] [µM] | LD50 Ratio (NC/SC) [1] | CC50 [2, 4] [µM] | selective killing of SCs (viable WI-38 cells, NC vs IR-SC) ([1]; 5 μM ABT199, 0.5 μM WEHI539, or both, 72 h) | IC50 [1, 5] [µM] | CC50 [2, 6] [µM] | IC50 [1, 7] [µM] | CC50 [2, 8] [µM] |
| --- | --- | --- | --- | --- | --- | --- | --- | --- |
| COCCn1c2c([n+](Cc3cnccn3)c1C)C(=O)c1ccccc1C2=O [YM-155] | 50 | 1.6 | 78.4 | – | – | – | – | – |
| O=c1cc(-c2cccc3c2Sc2ccccc2S3)oc(N2CCOCC2)c1 [KU55933] | 30.7 | 0.2 | 5.1 | – | – | – | – | – |
| CC1(C)CCC(CN2CCN(c3ccc(C(=O)NS(=O)(=O)c4ccc(NCC5CCOCC5)c([N+](=O)[O-])c4)c(Oc4cnc5[nH]ccc5c4)c3)CC2)=C(c2ccc(Cl)cc2)C1 [ABT199] | > 10 | – | > 10 | did not selectively kill SCs | – | – | – | – |
| Oc1ccc(-c2nc(-c3ccncc3)c(-c3ccc(F)cc3)[nH]2)cc1 [SB202190] | > 800 | – | > 800 | – | – | – | – | – |
| O=C(O)CCCCC(CCSCc1ccccc1)SCc1ccccc1 (stereo not shown) [CPI-613] | 205 | 1.1 | 223 | – | – | – | – | – |
| O=CC[C@@H](O)[C@H](O)[C@H](O)CO [2-Deoxy-D-glucose] | 8890 | 0.5 | 4800 | – | – | – | – | – |
| C[C@]12CC[C@H](O)CC1=CC[C@@H]1[C@@H]2CC[C@]2(C)C(=O)CC[C@@H]12 [Dehydroepiandrosterone] | 510 | 0.6 | 296 | – | – | – | – | – |
| CC(/C=C/C(=O)NO)=C\[C@@H](C)C(=O)c1ccc(N(C)C)cc1 [Trichostatin A(TSA), Trichostatin A] | – | 1.87 | – | – | 0.39 | 0.72 | – | – |
| CNCCCN1c2ccccc2CCc2ccccc21 [Despramine] | – | 1.0 | – | – | 51.13 | 50.03 | – | – |
| CCCCS(=N)(=O)CCC(N)C(=O)O (stereo not shown) [Buthionine sulfoximine] | 2390 | 1.0 | 2340 | – | – | – | – | – |
| CC(=O)OC[C@H]1O[C@@H]([S-])[C@H](OC(C)=O)[C@@H](OC(C)=O)[C@@H]1OC(C)=O.CCP(CC)CC.[Au+] [Auranofin] | – | 1.0 | – | – | 5.34 | 5.13 | – | – |
| O=c1cc(N2CCOCC2)oc2c1ccc1ccccc12 [NU7026] | – | 0.7 | – | – | 64.03 | 47.02 | – | – |
| NCCCNCCCCNCCCN [Spermine] | > 40 | – | > 40 | – | – | – | – | – |
| O=C(CCCCCCC(=O)Nc1ccccc1)NO [Vorinostat(SAHA), Vorinostat] | 2.21 | 0.38 | 0.85 | – | – | – | – | – |
| Arsenic trioxide | – | 0.9 | – | – | 18.26 | 15.65 | – | – |
| COc1ccc(C2=N[C@@H](c3ccc(Cl)cc3)[C@@H](c3ccc(Cl)cc3)N2C(=O)N2CCNC(=O)C2)c(OC(C)C)c1 [Nutlin3] | – | 0.1 | – | – | 82.16 | 5.62 | – | – |

| Compound | IC50 [1, 3] [µM] | LD50 Ratio (NC/SC) [1] | CC50 [2, 4] [µM] | selective killing of SCs (viable WI-38 cells, NC vs IR-SC) ([1]; 5 μM ABT199, 0.5 μM WEHI539, or both, 72 h) | IC50 [1, 5] [µM] | CC50 [2, 6] [µM] | IC50 [1, 7] [µM] | CC50 [2, 8] [µM] |
| --- | --- | --- | --- | --- | --- | --- | --- | --- |
| O=C(O)C(=O)CBr [3-bromopyruvate] | – | 0.8 | – | – | 370.00 | 280.00 | – | – |
| COc1c(O)cc(O)c2c(=O)cc(-c3ccccc3)oc12 [Wogonin] | – | 1.0 | – | – | – | – | > 200 | > 200 |
| CCCCCCCCCCCCC/C=C/[C@@H](O)[C@@H](N)CO[C@@H]1O[C@H](CO)[C@H](O)[C@H](O)[C@H]1O [Psychosine] | – | 0.9 | – | – | 52.25 | 46.32 | – | – |
| OO [Hydrogen peroxide] | 231 | 0.58 | 135 | – | – | – | – | – |
| CC(C)C[C@H](NC(=O)[C@H](Cc1ccccc1)NC(=O)c1cnccn1)B(O)O [Bortzomib] | – | 0.7 | – | – | 0.024 | 0.016 | – | – |
| Cc1csc(=NC2CCCCC2)n1/N=C/c1ccc(O)c(O)c1O [MIM1] | – | 1.0 | – | – | >50.00 | >50.00 | – | – |
| CS[C@H]1SC[C@H]2C(=O)N(C)[C@@H](C(C)C)C(=O)OC[C@@H](NC(=O)c3cnc4ccccc4n3)C(=O)N[C@@H](C)C(=O)N(C)[C@@H]1C(=O)N(C)[C@@H](C(C)C)C(=O)OC[C@@H](NC(=O)c1cnc3ccccc3n1)C(=O)N[C@@H](C)C(=O)N2C [Echinomycin] | – | 0.2 | – | – | – | – | 2.86 | 0.42 |
| Balifomycin A1 | – | 1.3 | – | – | 22.11 | 29.71 | – | – |
| Cc1ccc2nc(NCCN)c3ncc(C)n3c2c1 [BMS345541] | 10.8 | 0.6 | 6.87 | – | – | – | – | – |
| CC(C)C[C@@H](C=O)NC(=O)[C@H](CC(C)C)NC(=O)[C@H](CC(C)C)NC(=O)OCc1ccccc1 [MG132] (Cbz-Leu-Leu-Leu-aldehyde) | – | 0.1 | – | – | – | – | 1.92 | 0.24 |
| C=CCNc1c(O)cc2c(O)c1C[C@@H](C)C[C@H](OC)[C@H](O)[C@@H](C)/C=C(\C)[C@H](OC(N)=O)[C@@H](OC)/C=C\C=C(/C)C(=O)N2 [IPI-504] | – | 0.2 | – | – | – | – | 0.93 | 0.14 |
| CC1=CC(=O)c2c(O)cccc2C1=O [Plumbagin] | 8.7 | 1.5 | 12.6 | – | – | – | – | – |
| S=C=NCCc1ccccc1 [Phenethyl isothiocyanate (PEITC), Phenethyl isothiocyanate] | > 10 | <1.0 | < 10 | – | – | – | – | – |
| CC(C)(C)c1ccc(C(O)CCCN2CCC(C(O)(c3ccccc3)c3ccccc3)CC2)cc1 (stereo not shown) [Terfenadine] | 6.87 | 0.9 | 6.13 | – | – | – | – | – |
| CCCCCCCCCC[P+](c1ccccc1)(c1ccccc1)c1ccccc1 [Decyl-triphenylphosphonium] | – | 1.4 | – | – | – | – | 0.98 | 1.41 |
| CO[C@H]1C[C@@H]2CC[C@@H](C)[C@@](O)(O2)C(=O)C(=O)N2CCCC[C@H]2C(=O)O[C@H]([C@H](C)C[C@@H]2CC[C@@H](O)[C@H](OC)C2)CC(=O)[C@H](C)/C=C(\C)[C@@H](O)[C@@H](OC)C(=O)[C@H](C)C[C@H](C)/C=C/C=C/C=C/1C [Rapamycin] | – | 1.0 | – | – | – | – | > 0.04 | > 0.04 |
